Results: ChEMBL document CHEMBL1201862, “PubChem BioAssay data set” (2004)
“And” between values parts separate entries of the source, which are not always exact repeats. Equal entries are not always repeated.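 Briefly, cells in 96-well plates were exposed to five compound concentrations for 48 h, and endpoints were estimated by linear interpolation. The concentration for 50% growth inhibition is given as GI50.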 The source made the active and inactive calls. No stated cut-off is given here; in the data, active = GI50 up to about 1.1 µM and inactive = higher.

Tests used:
Assay in all cases: growth of human tumour cells (NCI), 48 h
A498 = test system: A498
BT-549 = test system: BT-549
CCRF-CEM = test system: CCRF-CEM
DU-145 = test system: DU-145
HCT-15 = test system: HCT-15
HL-60 = test system: HL-60
HT-29 = test system: HT-29
Hs-578T = test system: Hs-578T
M14 = test system: M14
MCF7 = test system: MCF7
MDA-MB-231 = test system: MDA-MB-231
MDA-N = test system: MDA-N
Malme-3M = test system: Malme-3M
NCI-H460 = test system: NCI-H460
PC-3 = test system: PC-3
SF-295 = test system: SF-295
SK-OV-3 = test system: SK-OV-3
SR = test system: SR
T47D = test system: T47D
UACC-257 = test system: UACC-257

Row | Compound | GI50 (A498) | GI50 (BT-549) | GI50 (CCRF-CEM) | GI50 (DU-145) | GI50 (HCT-15) [µM] | GI50 (HL-60) | GI50 (HT-29) | GI50 (Hs-578T) | GI50 (M14) | GI50 (MCF7) | GI50 (MDA-MB-231) | GI50 (MDA-N) | GI50 (Malme-3M) | GI50 (NCI-H460) | GI50 (PC-3) | GI50 (SF-295) | GI50 (SK-OV-3) | GI50 (SR) | GI50 (T47D) | GI50 (UACC-257)
1 | CCn1c2ccccc2c2cc(NC(=O)c3c(C)[nH]c(=O)[nH]c3=S)ccc21 | > 100 µM (inactive) | 31 µM (inactive) | 29.2 µM (inactive) | 42.1 µM (inactive) | 41.2 | 37 µM (inactive) | 48.2 µM (inactive) | 50.4 µM (inactive) | 24.2 µM (inactive) | 49.4 µM (inactive) | 19.8 µM (inactive) | 29.2 µM (inactive) | 49.4 µM (inactive) | 58.3 µM (inactive) | 31.8 µM (inactive) | 61.4 µM (inactive) | > 100 µM (inactive) | 41 µM (inactive) | > 100 µM (inactive) | 70.3 µM (inactive)
2 | C1CCC(OC2CSC2)OC1 (stereo unspecified) | > 100 µM (inactive) |  | > 100 µM (inactive) | > 100 µM (inactive) | > 100 |  | > 100 µM (inactive) | > 100 µM (inactive) | > 100 µM (inactive) | > 100 µM (inactive) | > 100 µM (inactive) | > 100 µM (inactive) |  | > 100 µM (inactive) | > 100 µM (inactive) | > 100 µM (inactive) | > 100 µM (inactive) | > 100 µM (inactive) | > 100 µM (inactive) | > 100 µM (inactive)
3 | CCc1cc(=O)n(/C(C)=C/c2ccccc2)n1C |  | > 100 µM (inactive) | > 100 µM (inactive) | > 100 µM (inactive) |  |  | > 100 µM (inactive) | > 100 µM (inactive) | > 100 µM (inactive) | > 100 µM (inactive) | > 100 µM (inactive) | > 100 µM (inactive) |  | > 100 µM (inactive) | > 100 µM (inactive) | > 100 µM (inactive) | > 100 µM (inactive) |  | > 100 µM (inactive) | > 100 µM (inactive)
4 | CC1=C(C)Cc2c(O)ccc(O)c2C1 | 83.9 µM (inactive) |  | 3.12 µM (inactive) | 20.1 µM (inactive) | 17.5 | 5.36 µM (inactive) | 14.1 µM (inactive) | 17.7 µM (inactive) | 16.2 µM (inactive) | 19.2 µM (inactive) | 18 µM (inactive) | 17 µM (inactive) | 17.5 µM (inactive) | 43.7 µM (inactive) | 15.2 µM (inactive) | 47.4 µM (inactive) | 76.2 µM (inactive) | 12.6 µM (inactive) | 18.5 µM (inactive) | 18.2 µM (inactive)
5 | CCCCCCCC/C=C\CCCCCCCCCCCC(=O)O [ERUCIC ACID] | 0.891 µM (active) |  | 24.4 µM (inactive) |  | 43.7 | 19.3 µM (inactive) | 43.8 µM (inactive) |  |  | 14.9 µM (inactive) |  |  | 47.9 µM (inactive) | 7.48 µM (inactive) |  | 35.3 µM (inactive) | > 85.9 µM (inactive) |  |  | 58.2 µM (inactive)
6 | CCNc1nnc(-c2nsc3ccccc23)s1 |  |  | > 100 µM (inactive) |  | > 100 | > 100 µM (inactive) | 26.5 µM (inactive) |  | > 100 µM (inactive) |  |  |  |  | 33.2 µM (inactive) |  |  |  | > 100 µM (inactive) |  | > 100 µM (inactive)
7 | COc1cc2c3cc1Oc1c(OC)c(OC)cc4c1C(Cc1ccc(cc1)Oc1cc(ccc1O)CC3N(C)CC2)N(C)CC4 (stereo unspecified) | 16.1 µM (inactive) | 10.1 µM (inactive) |  | 10.6 µM (inactive) |  |  | 2.78 µM (inactive) and 5.09 µM (inactive) | 10.8 µM (inactive) | 1.87 µM (inactive) and 2 µM (inactive) | 6.44 µM (inactive) | 10.1 µM (inactive) | 4.73 µM (inactive) | 7.01 µM (inactive) and 14 µM (inactive) |  | 10.4 µM (inactive) |  | 13.4 µM (inactive) and 25.6 µM (inactive) | 2.78 µM (inactive) and 2.06 µM (inactive) | 11.3 µM (inactive) | 
8 | C1=Cc2nccc3cc4c(c(c23)N1)OCO4 | 21.6 µM (inactive) | 20.3 µM (inactive) | 7.69 µM (inactive) | 6.15 µM (inactive) | 13.9 | > 100 µM (inactive) |  | 3.58 µM (inactive) | 18.4 µM (inactive) | 2.32 µM (inactive) | 10.3 µM (inactive) | 8.02 µM (inactive) | 9.23 µM (inactive) | 4.36 µM (inactive) | 11.6 µM (inactive) | 3.36 µM (inactive) | 5.92 µM (inactive) | 1.28 µM (inactive) | 6.4 µM (inactive) | 17.5 µM (inactive)
9 | COc1ccc(/C(Cl)=C(\C=O)c2ccc(Cl)c(Cl)c2)cc1OC | 15.2 µM (inactive) |  | 2.73 µM (inactive) |  | 4.34 | 2.7 µM (inactive) | 2.47 µM (inactive) |  | 7.1 µM (inactive) |  |  |  | 18.3 µM (inactive) | 3.4 µM (inactive) |  | 3.79 µM (inactive) | 38.5 µM (inactive) |  |  | 
10 | C#CC(C)(C)Oc1cc(OC)c2c(=O)c3ccccc3n(C)c2c1 |  |  | 5.27 µM (inactive) | 12.4 µM (inactive) | 10.9 | 10.9 µM (inactive) | 4.81 µM (inactive) | 17.5 µM (inactive) |  | 20.1 µM (inactive) | 15.2 µM (inactive) | 12.6 µM (inactive) |  | 13.5 µM (inactive) | 13.8 µM (inactive) | 19.5 µM (inactive) | 23 µM (inactive) | 2.83 µM (inactive) | 2.84 µM (inactive) | 10.9 µM (inactive)
11 | COc1cccc(NC(=O)CC(=O)NNCC(=O)Nc2nnc(-c3ccc(N(CCC#N)S(=O)(=O)c4ccccc4)cc3)s2)c1 |  |  |  |  | > 100 |  |  |  |  |  |  |  | 40.7 µM (inactive) |  |  | 87.1 µM (inactive) | 30.5 µM (inactive) | 28.8 µM (inactive) |  | 
12 | CC1CC(Br)C(=O)O1 (stereo unspecified) | > 100 µM (inactive) | > 100 µM (inactive) | > 100 µM (inactive) | > 100 µM (inactive) | > 100 | > 100 µM (inactive) | > 100 µM (inactive) | > 100 µM (inactive) | > 100 µM (inactive) | > 100 µM (inactive) | > 100 µM (inactive) | > 100 µM (inactive) | > 100 µM (inactive) | > 100 µM (inactive) | > 100 µM (inactive) | > 100 µM (inactive) | > 100 µM (inactive) |  | > 100 µM (inactive) | > 100 µM (inactive)
13 | NNc1nc2ccccc2s1 | > 100 µM (inactive) | > 100 µM (inactive) | 35.1 µM (inactive) | > 100 µM (inactive) | > 100 | > 100 µM (inactive) | > 100 µM (inactive) | > 100 µM (inactive) | > 100 µM (inactive) | > 100 µM (inactive) | > 100 µM (inactive) | > 100 µM (inactive) | > 100 µM (inactive) | > 100 µM (inactive) | > 100 µM (inactive) |  |  | 53.2 µM (inactive) | 55.2 µM (inactive) | > 100 µM (inactive)
